The results in this text go back to the NIST ThermoML archive (doi:10.1021/acs.jced.6b00552).

Each structure is given as a SMILES string. Numbers after ± are expanded uncertainties.

For series [1] the following is noted: Crystal; DSC.
Series [2] in a line: Molar enthalpy of transition or fusion. Conditions: Crystal; DSC.

For the compound `O=C(CCc1ccc(O)cc1)c1c(O)cc(O)cc1O` [3-(4-hydroxyphenyl)-1-(2,4,6-trihydroxyphenyl)propan-1-one], the Triple point temperature in series [1] came to 542.96 ± 1.2 K. The “Molar enthalpy of transition or fusion” value in series [2] was determined as 56.4 ± 3.5 kJ/mol.
The corresponding values for `C[C@@H]1O[C@@H](O[C@H]2[C@H](Oc3cc(O)c(C(=O)CCc4ccc(O)cc4)c(O)c3)O[C@H](CO)[C@@H](O)[C@@H]2O)[C@H](O)[C@H](O)[C@H]1O` [naringin dihydrochalcone] are 432.22 ± 1.2 K and 29.6 ± 1.9 kJ/mol.
